Data reported in patent US8765695B2, “Use of ginsenoside RG1, its metabolites ginsenoside RH1 and/or PPT” (priority 2007, dated 2014).
Marks after values point to notes of the source that are not given here.

Columns and labels:
male mice = test: Test of sexual ethology: bestriding time and mating frequency of male mice with estral female mice; format: in vivo, Kunming mice
Description: Kunming male mice (age 10 weeks, weight body 32-36 g), Kunming female mice (age 10 weeks, weight body 30-34 g), as purchased from Laboratory Animal Center of Chinese Academy of Medical Sciences (with the number of certificate SCXK (Jing) 2005-0004), were placed in a clean grade animal house alternately in light and in darkness (12 h:12 h), while taking water and food freely. The test started after the mice had adapted to the environment in the animal house for 5 days. During the period of adapting to the environment, male mice and female mice were isolated from each other.
In order to correctly reflect the change of male mice in sexual function, we prepared estral female mice by ectomizing their ovaries and inducing them by application of external hormone. After anesthetized with chloral hydrate, female mice were subjected to the steps of ectomizing bilateral ovaries by dorsal approach, ligating uterine tube residue end, and suturing skin, followed by recuperating for one week. The induction by application of hormone was conducted by reference to the literature (Masayoshi Nomura, et al, Physiology & Behavior 91 (2007) 223-228), comprising the steps of subcutaneously injecting estradiol benzoate (30 μg per mouse, is) at 48 h prior to use, and subcutaneously injecting progesterone (500 μg per mouse, is) at 4 h prior to use, to thereby obtain estral female mice.
Estral female mice were put in a ratio of 2:1 to male mice inside a mating box in which male mice were placed. They were trained for consecutive 5 days, 12 min each day. When the mating reaction of male mice became stable, the mice were grouped with the consideration that the bestriding time in each group of mice was substantially the same, while discarding the mice that had relatively weak reaction and no reaction.
In darkness, ethological test was carried out in the rearing cage of male mice. Estral female mice and male mice were kept in a ratio of 2:1 inside the same box for 12 min, during which period the bestriding time and mating frequency of the male mice were observed.
All of the values were expressed by using mean value and standard error (M±SEM), the analytic method used was one-way analysis of variance (ANOVA), and the statistic results were expressed by double star method, i.e., *<0.05, **<0.01.

testosterone in serum = test: Content of testosterone in serum of male mice by radioimmune assay after 20 days of oral administration; format: in vivo
Description: After oral administration of ginsenoside Rg1 for 20 days, the content of testosterone in serum of male mice was tested by radioimmune assay.

corpus cavernosum = test: NO release and cGMP content in corpus cavernosum of Newland white rabbit; format: in vivo
Description: 1.2.1 Influence of Ginsenoside Rg1 on No Release and cGMP Content in Corpus Cavernosum of Newland White Rabbit, as Shown in Table 4
Ginsenoside Rg1 (10 mg/kg) could markedly increase cGMP content in corpus cavernosum as compared with the control group. *P<0.05 vs the control group.

PDE5 = PDE5 (Homo sapiens, UniProt O76074); test: Inhibition effect on PDE5 (cGMP degradation, radioimmune autograph technique); format: biochemical
healthy men aged 30-50 = test: Improving sexual function of men, study in volunteers; format: in vivo, human; settings: 100-200 mg/d
Description: The effect of ginsenoside Rg1 on improving sexual function of men had been studied in a few of volunteers (healthy men aged 30-50).

[1] = system: sperms in tail of epididymis; test: Gossypol aspermatogenesis model: quality of sperms from tail of epididymis by CASA; format: in vivo,  male mice; settings: 14th day
NO in testis tissue = test: NO content in testis tissue of mice, gossypol model (NO kit); format: in vivo
Description: There was no difference between low-dose group and high-dose group. […] The values were expressed as mean value±SD. **P<0.01 vs. model group, n=10.

T, FSH and LH in serum = test: Hormones (T, FSH, LH) content in serum of mice, gossypol model, radioimmune assay; format: in vivo
Description: The test was conducted by radioimmune assay, with the use of a kit as purchased from China North Institute of Biological Technology.

sperms of senile mice = test: Quality of sperms in senile mice by CASA; format: in vivo, Kunming mice; settings: senile mice aged 12 months, 5 mg/kg oral once every day, two weeks
Description: In the test, Kunming mice aged 12 months were used. Ginsenoside Rg1 was orally administered at a dose of 5 mg/kg, once every day, for two weeks.
However, the two groups had no difference in terms of the percentage of motility sperms and the percentage of A+B grade. […] The values were expressed as mean value±SD. **P<0.01 vs. the group of senile mice, n=4.

[2] = system: sperms of cold stress mice; test: Quality of sperms in mice in cold stress model by CASA; format: in vivo, Kunming mice; settings: 14 days
Description: In the test, Kunming mice were used to establish a stress model. The mice were placed in an environment of 4° C. for 8 hours every day, each being kept in a single cage, with fasting and without water, for 14 days, to thereby establish a cold stress model. Ginsenoside Rg1 was administered at two different doses, i.e., 5 mg/kg and 10 mg/kg. Every day, the mice orally took the drug 1 hour before exposure in the cold environment.

## CC(C)=CCC[C@](C)(O[C@@H]1O[C@H](CO)[C@@H](O)[C@H](O)[C@H]1O)[C@H]1CC[C@]2(C)[C@@H]1[C@H](O)C[C@@H]1[C@@]3(C)CC[C@H](O)C(C)(C)[C@@H]3[C@@H](O[C@@H]3O[C@H](CO)[C@@H](O)[C@H](O)[C@H]3O)C[C@]12C [Rg1, ginsenoside Rg1]
Male mice; 5 mg/kg, 1st day
  bestriding time of mice: 3.1 ± 4.3 min
Male mice; 5 mg/kg, 1st day, 12 min observation
  mating frequency of mice: 15.4 ± 6.4
Male mice; 5 mg/kg, 4th day
  bestriding time of mice: 2.9 ± 3.4 min
  mating frequency of mice: 18.7 ± 4.2
Male mice; 5 mg/kg, 8th day
  bestriding time of mice: 3.9 ± 3.1 min
  mating frequency of mice: 25.6 ± 5.2
Male mice; 5 mg/kg, 12th day
  bestriding time of mice: 7.6 ± 4.1 min
  mating frequency of mice: 32.8 ± 6.6
Male mice; 5 mg/kg, 14th day
  bestriding time of mice: 6.9 ± 3.5 min
  mating frequency of mice: 29.3 ± 7.0
Male mice; 5 mg/kg, 16th day
  bestriding time of mice: 8.6 ± 2.8 min
  mating frequency of mice: 42.1 ± 10.1
Male mice; 5 mg/kg, 18th day
  bestriding time of mice: 9.4 ± 3.7* min
  mating frequency of mice: 43.7 ± 8.7*
Male mice; 5 mg/kg, 20th day
  bestriding time of mice: 9.5 ± 3.4* min
  mating frequency of mice: 43.3 ± 7.8*
Male mice; 10 mg/kg, 1st day
  bestriding time of mice: 3.3 ± 2.3 min
Male mice; 10 mg/kg, 1st day, 12 min observation
  mating frequency of mice: 13.8 ± 3.4
Male mice; 10 mg/kg, 4th day
  bestriding time of mice: 3.5 ± 3.1 min
  mating frequency of mice: 20.1 ± 4.8
Male mice; 10 mg/kg, 8th day
  bestriding time of mice: 4.2 ± 3.6 min
  mating frequency of mice: 28.3 ± 5.6
Male mice; 10 mg/kg, 12th day
  bestriding time of mice: 8.6 ± 4.3 min
  mating frequency of mice: 25.3 ± 7.1
Male mice; 10 mg/kg, 14th day
  bestriding time of mice: 7.9 ± 3.7 min
  mating frequency of mice: 33.3 ± 6.6
Male mice; 10 mg/kg, 16th day
  bestriding time of mice: 9.2 ± 3.6 min
  mating frequency of mice: 37.9 ± 12.7
Male mice; 10 mg/kg, 18th day
  bestriding time of mice: 9.3 ± 3.6* min
  mating frequency of mice: 45.1 ± 10.8*
Male mice; 10 mg/kg, 20th day
  bestriding time of mice: 9.8 ± 3.8* min
  mating frequency of mice: 44.2 ± 9.4*
Testosterone in serum; 2.5 mg/kg oral
  content of testosterone in serum of mice: 5.11 pmol/mL
Testosterone in serum; 5.0 mg/kg oral
  content of testosterone in serum of mice: 5.18 pmol/mL
Testosterone in serum; 10.0 mg/kg oral
  content of testosterone in serum of mice: 7.90* pmol · ml^−1
Corpus cavernosum; 2.5 mg/kg
  NO release in corpus cavernosum: 27.97 ± 6.90 μmol/g protein
  cGMP content in corpus cavernosum: 87.40 ± 42.86 pmol/g
Corpus cavernosum; 5.0 mg/kg
  NO release in corpus cavernosum: 28.43 ± 6.04* μmol/g protein
  cGMP content in corpus cavernosum: 98.10 ± 48.40 pmol/g
Corpus cavernosum; 10.0 mg/kg
  NO release in corpus cavernosum: 30.35 ± 6.70* μmol/g protein
  cGMP content in corpus cavernosum: 102.73 ± 50.80* pmol/g
PDE5
  IC50: 4.34 nM
PDE5; inhibitor 2.5 nmol/l, read-out: Inhibition rate on PDE5
  inhibition at 0.0025 µM: 46.7%
PDE5; inhibitor 5.0 nmol/l, read-out: Inhibition rate on PDE5
  inhibition at 0.005 µM: 40%
PDE5; inhibitor 10.0 nmol/l, read-out: Inhibition rate on PDE5
  inhibition at 0.01 µM: 63.4%
PDE5; inhibitor 40.0 nmol/l, read-out: Inhibition rate on PDE5
  inhibition at 0.04 µM: 100%
PDE5; inhibitor 80.0 nmol/l, read-out: Inhibition rate on PDE5
  inhibition at 0.08 µM: 100%
Healthy men aged 30-50
  side effects in volunteers: except for dry mouth, no significant side effects occurred
[1]; 5 mg/kg every day + gossypol 50 mg/kg every other day
  Number of sperms: 170 ± 36**^# 10^6 · ml−1
[1]; 5 mg/kg every day + gossypol
  Motility of sperms (A + B): 28 ± 6%
  Viability rate of sperms: 50 ± 10 %
[1]; 10 mg/kg every day + gossypol 50 mg/kg every other day
  Number of sperms: 225 ± 36**^## 10^6 · ml−1
[1]; 10 mg/kg every day + gossypol
  Motility of sperms (A + B): 45 ± 8 %
  Viability rate of sperms: 61 ± 9 %
NO in testis tissue; 5 mg/kg
  NO concentration in testis tissue: 16 ± 9 μmol/g protein
NO in testis tissue; 10 mg/kg
  NO concentration in testis tissue: 10 ± 7** μmol/g protein
T, FSH and LH in serum; 5 mg/kg
  FSH in serum: 5.7 ± 2.0 ng/mL
  LH in serum: 2.9 ± 1.2 ng/mL
  T in serum: 0.8 ± 0.3 ng/mL
T, FSH and LH in serum; 10 mg/kg
  FSH in serum: 4.3 ± 1.9 ng/mL
  LH in serum: 2.1 ± 0.8 ng/mL
  T in serum: 1.0 ± 0.5 ng/mL
Sperms of senile mice
  A + B grade: 18.27 ± 8.37%
  Motility sperms: 40 ± 6.56%
  Sperm count: 133.23 ± 15.99** ×10^6
[2]; 5 mg/kg oral
  A + B grade: 39.26 ± 8.96 %
  Motility sperm: 54.47 ± 8.14 %
  Sperm count: 438.70 ± 94.19 ×10^6
[2]; 10 mg/kg oral
  A + B grade: 32.89 ± 13.42%
  Motility sperm: 44.97 ± 12.07%
  Sperm count: 377.17 ± 42.93 ×10^6
